Results taken from the supplement of paper PMC10307832.

How the values were obtained:
Test in all cases: relative viability (nuclei count vs DMSO), 5 days (fraction); higher = more cells survive
Vismodegib + Decitabine = compound: CS(=O)(=O)c1ccc(C(=O)Nc2ccc(Cl)c(-c3ccccn3)c2)c(Cl)c1 [Vismodegib] + Nc1ncn([C@H]2C[C@H](O)[C@@H](CO)O2)c(=O)n1 [Decitabine] (partner 2 µM)
Outline: (§1)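 Dosing by pin tool came one day after lung cancer cell lines were seeded in 1536-well plates, using either one drug or a fixed anchor-drug dose plus five library-drug doses (not always all listed) in √10 steps. After 5 days, nuclei were counted on 4× images. Relative viability is treated-well nuclei count divided by vehicle-well nuclei count, and values are medians of duplicate plates.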

Ruxolitinib + Vorinostat = compound: N#CC[C@H](C1CCCC1)n1cc(-c2ncnc3[nH]ccc23)cn1 [Ruxolitinib] + O=C(CCCCCCC(=O)Nc1ccccc1)NO [Vorinostat] (partner 1 µM)
Outline: as §1

[1] = compound: N#CC[C@H](C1CCCC1)n1cc(-c2ncnc3[nH]ccc23)cn1 [Ruxolitinib] + CC(=O)c1c(C)c2cnc(Nc3ccc(N4CCNCC4)cn3)nc2n(C2CCCC2)c1=O [Palbociclib] (partner 0.5 µM)
Outline: as §1

Vismodegib + Alpelisib = compound: CS(=O)(=O)c1ccc(C(=O)Nc2ccc(Cl)c(-c3ccccn3)c2)c(Cl)c1 [Vismodegib] + Cc1nc(NC(=O)N2CCC[C@H]2C(N)=O)sc1-c1ccnc(C(C)(C)C(F)(F)F)c1 [Alpelisib] (partner 2 µM)
Outline: as §1

Row | Cell Line | relative viability (Vismodegib + Decitabine; first compound 0.08 µM) | relative viability (Vismodegib + Decitabine; first compound 0.253 µM) | relative viability (Vismodegib + Decitabine; first compound 0.8 µM) | relative viability (Vismodegib + Decitabine; first compound 2.53 µM) | relative viability (Vismodegib + Decitabine; first compound 8 µM) | relative viability (Ruxolitinib + Vorinostat; first compound 0.08 µM) | relative viability (Ruxolitinib + Vorinostat; first compound 0.253 µM) | relative viability (Ruxolitinib + Vorinostat; first compound 0.8 µM) | relative viability (Ruxolitinib + Vorinostat; first compound 2.53 µM) | relative viability (Ruxolitinib + Vorinostat; first compound 8 µM) | relative viability ([1]; first compound 0.08 µM) | relative viability ([1]; first compound 0.253 µM) | relative viability ([1]; first compound 0.8 µM) | relative viability ([1]; first compound 2.53 µM) | relative viability ([1]; first compound 8 µM) | relative viability (Vismodegib + Alpelisib; first compound 0.08 µM) | relative viability (Vismodegib + Alpelisib; first compound 0.253 µM) | relative viability (Vismodegib + Alpelisib; first compound 0.8 µM) | relative viability (Vismodegib + Alpelisib; first compound 2.53 µM) | relative viability (Vismodegib + Alpelisib; first compound 8 µM)
1 | NCI-H1666 | 0.763 | 0.774 | 0.739 | 0.676 | 0.69 | 1.05 | 1.07 | 1.1 | 1.08 | 1.14 | 0.66 | 0.613 | 0.654 | 0.675 | 0.632 | 0.913 | 0.879 | 0.813 | 1.01 | 1.13
2 | EPLC-272H | 0.375 | 0.358 | 0.358 | 0.362 | 0.341 | 0.586 | 0.447 | 0.463 | 0.249 | 0.337 | 0.285 | 0.331 | 0.38 | 0.365 | 0.412 | 0.894 | 0.888 | 0.872 | 1 | 0.931
3 | NCI-H838 | 0.464 | 0.43 | 0.502 | 0.431 | 0.609 | 0.734 | 0.669 | 0.685 | 0.535 | 0.349 | 0.254 | 0.223 | 0.227 | 0.164 | 0.159 | 0.904 | 0.952 | 1.09 | 0.978 | 1.02
4 | NCI-H2087 | 0.267 | 0.25 | 0.266 | 0.296 | 0.233 | 0.868 | – | 0.752 | 0.686 | 0.705 | 0.26 | – | 0.271 | 0.18 | 0.239 | 1.02 | 1.07 | 1.05 | 1 | 0.995
5 | LC-2-ad | 0.746 | 0.717 | 0.834 | 0.693 | 0.777 | 0.798 | 0.715 | 0.728 | 0.698 | 0.64 | 0.544 | 0.511 | 0.533 | 0.473 | 0.409 | 0.894 | 0.909 | 0.859 | 0.818 | 0.918
6 | NCI-H2405 | 0.739 | 0.801 | 0.693 | 0.712 | 0.741 | 1 | 0.957 | 1.05 | 1.19 | 0.743 | 0.52 | 0.514 | 0.589 | 0.295 | 0.389 | – | 0.81 | 0.676 | 0.603 | 0.875
7 | HCC-366 | 0.374 | 0.283 | 0.377 | 0.331 | 0.311 | 0.34 | 0.321 | 0.423 | 0.192 | 0.167 | 0.417 | 0.441 | 0.389 | 0.365 | 0.19 | 0.436 | 0.467 | 0.362 | 0.402 | 0.556
